Patent publication US12516022B2, “Derivatives of aryl hydrocarbon receptor agonists” (AZORA THERAPEUTICS, INC., priority 2021, dated 2026)

How the values were obtained:
[1] = Time course of conversion to indirubin in FaSSIF at 37° C.;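 as to all read-outs here: test compound, about 1-3 mg in 5 mL FaSSIF, sampled and analysed by UPLC-MS with PDA UV (210-400 nm), QDa mass and evaporative light scattering detection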; type: physicochemical; settings: for Conversion to indirubin: over a 24 hour period
[2] = Time course of conversion to indirubin in FaSSGF at 37° C.;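 as to all read-outs here: compound incubated in fasted state simulated gastric fluid, species in samples quantified by UPLC-MS with UV (210–400 nm) and ELS detection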; type: physicochemical; settings: FaSSGF (Example 4; table title prints FaSSIF) 37° C.; for Conversion to indirubin: over a 24 hour period

Row | Structure (SMILES) | indirubin ([1]; FaSSIF 37° C. 24 h) [%] | indirubin methylene alcohol ([1]; FaSSIF 37° C. 24 h) [%] | starting material (prodrug compound) ([1]; FaSSIF 37° C. 24 h) [%] | indirubin ([1]; FaSSIF 37° C., 15 min) [%] | indirubin methylene alcohol ([1]; FaSSIF 37° C., 15 min) [%] | starting material (prodrug compound) ([1]; FaSSIF 37° C., 15 min) [%] | indirubin ([1]; FaSSIF 37° C., 30 min) [%] | indirubin ([2]; 15 min) [%] | indirubin methylene alcohol ([2]; 15 min) [%] | starting material (prodrug compound) ([2]; 15 min) [%] | indirubin ([2]; 30 min) [%] | indirubin methylene alcohol ([2]; 30 min) [%] | starting material (prodrug compound) ([2]; 30 min) [%] | indirubin ([2]; 2 h) [%] | indirubin methylene alcohol ([2]; 2 h) [%] | starting material (prodrug compound) ([2]; 2 h) [%] | indirubin ([2]; 24 h) [%] | indirubin methylene alcohol ([2]; 24 h) [%] | starting material (prodrug compound) ([2]; 24 h) [%] | Conversion to indirubin [2] | further results
1 | CN(C)C1CCN(CN2C(=O)/C(=C3\Nc4ccccc4C3=O)c3ccccc32)CC1 [drawing 256] | 72 | 6 | 0 | 61 | 5 | 30 | 62 | – | – | – | – | – | – | – | – | – | – | – | – | – | indirubin methylene alcohol ([1]; FaSSIF 37° C., 30 min): 5%; starting material (prodrug compound) ([1]; FaSSIF 37° C., 30 min): 31%; indirubin ([1]; FaSSIF 37° C., 1 h): 58%; indirubin methylene alcohol ([1]; FaSSIF 37° C., 1 h): 5%; starting material (prodrug compound) ([1]; FaSSIF 37° C., 1 h): 32%; indirubin ([1]; FaSSIF 37° C., 2 h): 70%; indirubin methylene alcohol ([1]; FaSSIF 37° C., 2 h): 7%; starting material (prodrug compound) ([1]; FaSSIF 37° C., 2 h): 22%; Conversion to indirubin ([1]; FaSSIF 37° C.): 60-80%
2 | O=C1/C(=C2/C(=O)N(CN3CCOCC3)c3ccccc32)Nc2ccccc21 [drawing 261] | 24 | 7 | 46 | 5 | 0 | 69 | 8 | – | – | – | – | – | – | – | – | – | – | – | – | – | indirubin methylene alcohol ([1]; FaSSIF 37° C., 30 min): 3%; starting material (prodrug compound) ([1]; FaSSIF 37° C., 30 min): 80%; indirubin ([1]; FaSSIF 37° C., 1 h): 6%; indirubin methylene alcohol ([1]; FaSSIF 37° C., 1 h): 0%; starting material (prodrug compound) ([1]; FaSSIF 37° C., 1 h): 64%; indirubin ([1]; FaSSIF 37° C., 2 h): 7%; indirubin methylene alcohol ([1]; FaSSIF 37° C., 2 h): 4%; starting material (prodrug compound) ([1]; FaSSIF 37° C., 2 h): 65%; Conversion to indirubin ([1]; FaSSIF 37° C.): 20-40%
3 | O=C1/C(=C2/C(=O)N(COS(=O)(=O)O)c3ccccc32)Nc2ccccc21 [drawing 262] | 12 | 83 | 0 | 7 | 79 | 0 | 14 | – | – | – | – | – | – | – | – | – | – | – | – | – | indirubin methylene alcohol ([1]; FaSSIF 37° C., 30 min): 73%; starting material (prodrug compound) ([1]; FaSSIF 37° C., 30 min): 0%; indirubin ([1]; FaSSIF 37° C., 1 h): 7%; indirubin methylene alcohol ([1]; FaSSIF 37° C., 1 h): 81%; starting material (prodrug compound) ([1]; FaSSIF 37° C., 1 h): 0%; indirubin ([1]; FaSSIF 37° C., 2 h): 7%; indirubin methylene alcohol ([1]; FaSSIF 37° C., 2 h): 83%; starting material (prodrug compound) ([1]; FaSSIF 37° C., 2 h): 0%; Conversion to indirubin ([1]; FaSSIF 37° C.): 0-20%
4 | O=C1/C(=C2/C(=O)N(CN3CCCC3)c3ccccc32)Nc2ccccc21 [drawing 255] | 100 | 0 | 0 | 100 | 0 | 0 | 100 | – | – | – | – | – | – | – | – | – | – | – | – | – | indirubin methylene alcohol ([1]; FaSSIF 37° C., 30 min): 0%; starting material (prodrug compound) ([1]; FaSSIF 37° C., 30 min): 0%; indirubin ([1]; FaSSIF 37° C., 1 h): 100%; indirubin methylene alcohol ([1]; FaSSIF 37° C., 1 h): 0%; starting material (prodrug compound) ([1]; FaSSIF 37° C., 1 h): 0%; indirubin ([1]; FaSSIF 37° C., 2 h): 100%; indirubin methylene alcohol ([1]; FaSSIF 37° C., 2 h): 0%; starting material (prodrug compound) ([1]; FaSSIF 37° C., 2 h): 0%; Conversion to indirubin ([1]; FaSSIF 37° C.): 80-100%
5 | O=C1/C(=C2/C(=O)N(CO)c3ccccc32)Nc2ccccc21 [drawing 274] | – | – | – | – | – | – | – | 8 | 92 | 0 | 18 | 82 | 0 | 18 | 82 | 0 | 22 | 78 | 0 | 20-40% | indirubin ([2]; 1 h): 12%; indirubin methylene alcohol ([2]; 1 h): 88%; starting material (prodrug compound) ([2]; 1 h): 0%
6 | CNCCNC(=O)N1C(=O)/C(=C2\Nc3ccccc3C2=O)c2ccccc21.Cl [drawing 264] | 0 | 0 | 100 | 0 | 0 | 100 | 0 | – | – | – | – | – | – | – | – | – | – | – | – | – | indirubin methylene alcohol ([1]; FaSSIF 37° C., 30 min): 0%; starting material (prodrug compound) ([1]; FaSSIF 37° C., 30 min): 100%; indirubin ([1]; FaSSIF 37° C., 1 h): 0%; indirubin methylene alcohol ([1]; FaSSIF 37° C., 1 h): 0%; starting material (prodrug compound) ([1]; FaSSIF 37° C., 1 h): 100%; indirubin ([1]; FaSSIF 37° C., 2 h): 0%; indirubin methylene alcohol ([1]; FaSSIF 37° C., 2 h): 0%; starting material (prodrug compound) ([1]; FaSSIF 37° C., 2 h): 100%; Conversion to indirubin ([1]; FaSSIF 37° C.): 0-20%
7 | CCN(CC)CN1C(=O)/C(=C2\Nc3ccccc3C2=O)c2ccccc21 [drawing 267] | – | – | – | – | – | – | – | 100 | 0 | 0 | 100 | 0 | 0 | 100 | 0 | 0 | 100 | 0 | 0 | 80-100% | indirubin ([2]; 1 h): 100%; indirubin methylene alcohol ([2]; 1 h): 0%; starting material (prodrug compound) ([2]; 1 h): 0%
8 | CN(C)CCN(C)CN1C(=O)/C(=C2\Nc3ccccc3C2=O)c2ccccc21 [drawing 253] | 87 | 7 | 0 | 90 | 7 | 0 | 90 | – | – | – | – | – | – | – | – | – | – | – | – | – | indirubin methylene alcohol ([1]; FaSSIF 37° C., 30 min): 7%; starting material (prodrug compound) ([1]; FaSSIF 37° C., 30 min): 0%; indirubin ([1]; FaSSIF 37° C., 1 h): 89%; indirubin methylene alcohol ([1]; FaSSIF 37° C., 1 h): 6%; starting material (prodrug compound) ([1]; FaSSIF 37° C., 1 h): 0%; indirubin ([1]; FaSSIF 37° C., 2 h): 85%; indirubin methylene alcohol ([1]; FaSSIF 37° C., 2 h): 6%; starting material (prodrug compound) ([1]; FaSSIF 37° C., 2 h): 0%; Conversion to indirubin ([1]; FaSSIF 37° C.): 80-100%
9 | CN1CCN(CN2C(=O)/C(=C3\Nc4ccccc4C3=O)c3ccccc32)CC1 [drawing 265] | 30 | 0 | 53 | 8 | 0 | 80 | 12 | – | – | – | – | – | – | – | – | – | – | – | – | – | indirubin methylene alcohol ([1]; FaSSIF 37° C., 30 min): 0%; starting material (prodrug compound) ([1]; FaSSIF 37° C., 30 min): 74%; indirubin ([1]; FaSSIF 37° C., 1 h): 11%; indirubin methylene alcohol ([1]; FaSSIF 37° C., 1 h): 0%; starting material (prodrug compound) ([1]; FaSSIF 37° C., 1 h): 77%; indirubin ([1]; FaSSIF 37° C., 2 h): 18%; indirubin methylene alcohol ([1]; FaSSIF 37° C., 2 h): 0%; starting material (prodrug compound) ([1]; FaSSIF 37° C., 2 h): 68%; Conversion to indirubin ([1]; FaSSIF 37° C.): 0-20%

Further lines, with some results ahead:

Row | indirubin ([1]; FaSSIF 37° C. 24 h) [%] | indirubin methylene alcohol ([1]; FaSSIF 37° C. 24 h) [%] | starting material (prodrug compound) ([1]; FaSSIF 37° C. 24 h) [%] | indirubin ([1]; FaSSIF 37° C., 15 min) [%] | indirubin methylene alcohol ([1]; FaSSIF 37° C., 15 min) [%] | starting material (prodrug compound) ([1]; FaSSIF 37° C., 15 min) [%] | indirubin ([1]; FaSSIF 37° C., 30 min) [%] | indirubin ([2]; 15 min) [%] | indirubin methylene alcohol ([2]; 15 min) [%] | starting material (prodrug compound) ([2]; 15 min) [%] | indirubin ([2]; 30 min) [%] | indirubin methylene alcohol ([2]; 30 min) [%] | starting material (prodrug compound) ([2]; 30 min) [%] | indirubin ([2]; 2 h) [%] | indirubin methylene alcohol ([2]; 2 h) [%] | starting material (prodrug compound) ([2]; 2 h) [%] | indirubin ([2]; 24 h) [%] | indirubin methylene alcohol ([2]; 24 h) [%] | starting material (prodrug compound) ([2]; 24 h) [%] | Conversion to indirubin [2] | Structure (SMILES) | further results
10 | – | – | – | – | – | – | – | 7 | 0 | 69 | 12 | 0 | 61 | 9 | 0 | 58 | 10 | 0 | 86 | 0-20% | O=C1/C(=C2/C(=O)N(C(=O)NC3CCOCC3)c3ccccc32)Nc2ccccc21 [drawing 278] | indirubin ([2]; 1 h): 11%; indirubin methylene alcohol ([2]; 1 h): 0%; starting material (prodrug compound) ([2]; 1 h): 82%
11 | – | – | – | – | – | – | – | 93 | 6 | 0 | 93 | 6 | 0 | 95 | 1 | 0 | 95 | 5 | 0 | 80-100% | CN(C)CCN(C)CN1C(=O)/C(=C2\Nc3ccccc3C2=O)c2ccccc21 [drawing 268] | indirubin ([2]; 1 h): 92%; indirubin methylene alcohol ([2]; 1 h): 7%; starting material (prodrug compound) ([2]; 1 h): 0%
12 | – | – | – | – | – | – | – | 90 | 5 | 4 | 94 | 4 | 2 | 91 | 8 | 2 | 90 | 9 | 1 | 80-100% | CN(C)CCN(CCN(C)C)CN1C(=O)/C(=C2\Nc3ccccc3C2=O)c2ccccc21 [drawing 271] | indirubin ([2]; 1 h): 87%; indirubin methylene alcohol ([2]; 1 h): 9%; starting material (prodrug compound) ([2]; 1 h): 3%
13 | – | – | – | – | – | – | – | 100 | 0 | 0 | 100 | 0 | 0 | 100 | 0 | 0 | 99 | 1 | 0 | 80-100% | O=C1/C(=C2/C(=O)N(CN3CCCC3)c3ccccc32)Nc2ccccc21 [drawing 270] | indirubin ([2]; 1 h): 100%; indirubin methylene alcohol ([2]; 1 h): 0%; starting material (prodrug compound) ([2]; 1 h): 0%
14 | – | – | – | – | – | – | – | 99 | 0 | 1 | 99 | 0 | 1 | 99 | 0 | 1 | 99 | 0 | 1 | 80-100% | O=C1/C(=C2/C(=O)N(CN3CCCCC3)c3ccccc32)Nc2ccccc21 [drawing 269] | indirubin ([2]; 1 h): 99%; indirubin methylene alcohol ([2]; 1 h): 0%; starting material (prodrug compound) ([2]; 1 h): 1%
15 | – | – | – | – | – | – | – | 0 | 15 | 83 | 0 | 23 | 67 | 0 | 22 | 72 | 0 | 8 | 26 | 0-20% | O=C1/C(=C2/C(=O)N(COS(=O)(=O)O)c3ccccc32)Nc2ccccc21 [drawing 277] | –
